Laboratory results: patent US20240246042A1, “METHOD FOR EMULSIFICATION USING IONIC FLUX” (Purdue Research Foundation, priority 2023, published 2024)
Read-outs that look alike come from different tables or passages of the source.

Key:
[1] = transfer from water to DCE; cited from earlier work
[2] = Gibbs free energy of ion transfer and ion transfer potentials across the water and DCE phase; format: physicochemical
Text: The Gibbs free energy of ion transfer and the ion transfer potentials for relevant ions across the water and DCE phase were studied.

[3] = format: physicochemical; conditions: aqueous phase None; cathode in aqueous, anode in DCE (per FIG. 23C, 24D-F); 5 mA, 5 min
Experimental: E) The cathode was placed in an aqueous phase containing no phase-transfer agent, and the anode was placed in DCE containing 0.1 M [NBu4][Br]. F) The cathode was placed in an aqueous phase containing no phase-transfer agent, and the anode was placed in DCE containing 0.1 M [NHx][ClO4].
All experiments were performed using bi-phasic systems consisting of immiscible solutions, such as 1,2-dichloroethane and water. Before experimentation, a platinum wire (r=1 mm) was sealed within a cell while maintaining an electrical connection. […] A secondary platinum wire (r=1 mm) was then submerged into the aqueous top layer to complete the circuit and allow for current to flow. Upon submersion, a current was then applied across the system using DC power supply. Current was maintained at 5 mA for a total duration of 5 min. Solutions were allowed to rest for an additional 5 minutes before additional experimentation or measurement.
The droplet sizes were measured. In these measurements, the resulting top layer and bottom layer from the prior section were allowed to rest for 5 minutes and were then transferred to a 1 cm glass cuvette. After transfer, the cuvette was inserted into the DLS instrumentation and was allowed to perform dynamic light scatter measurements to determine the size and intensity of the droplets formed during electro-emulsification. […]

SMILES | ΔGw→DCE^0 (standard Gibbs free energy of ion transfer) [1] | Δφw→DCE^0 (standard ion transfer potential) ([2]; transfer from water to DCE) | Δφw→DCE^0 (standard ion transfer potential) [2] | Average Size (d · nm) N = 3 [3] | Zeta Potential [3]
Br [Br^−] | 9.2 kcal/mol | −399 mV |  |  | 
[O-][Cl+3]([O-])([O-])O [ClO4^−] | 4.11 kcal/mol | −178 mV |  |  | 
Cl [Cl^−] | 11.1 kcal/mol | −481 mV |  |  | 
[H+] [H^+] | 14.5 kcal/mol | −627 mV |  |  | 
[K+] [K^+] | 12.6 kcal/mol | −548 mV |  |  | 
CCCC[N+](CCCC)(CCCC)CCCC [NBu4^+, tetrabutylammonium] |  | 226 mV |  |  | 
CC[N+](CC)(CC)CC [NEt4^+, tetraethylammonium] |  |  | −44 mV |  | 
[Na+] [Na^+] | 14.1 kcal/mol | −610 mV |  |  | 
F[P-](F)(F)(F)(F)F [PF6^−] | 2.08 kcal/mol | −90 mV |  |  | 
CCCCCC[N+](CCCCCC)(CCCCCC)CCCCCC.[O-][Cl+3]([O-])([O-])[O-] [[NHx4][ClO4], tetrahexylammonium perchlorate] |  |  |  | 3477 nm | −6.031 mV
